Laboratory results as given in patent US11667649B2, “Heteroaromatic macrocyclic ether chemotherapeutic agents” (Nuvalent, Inc., priority 2020, dated 2023).

Tested on: TPM3-NTRK1-wt IC50 / primary target (e.g. CD74-ROS1-wt) IC50, Ba/F3 cells
Experiment: Cell assay TRKA selectivity (TRKA potency divided by primary target potency)
Type: cell-based
Details: for TPM3-NTRK1-wt/CD74-ROS1-G2032R: TRKA selectivity ratio: TPM3-NTRK1-wt IC50 / CD74-ROS1-G2032R IC50, Ba/F3 cells; for TPM3-NTRK1-wt/CD74-ROS1-wt: TRKA selectivity ratio: TPM3-NTRK1-wt IC50 / CD74-ROS1-wt IC50, Ba/F3 cells; for TPM3-NTRK1-wt/EML4-ALK-L1196M-G1202R: TRKA selectivity ratio: TPM3-NTRK1-wt IC50 / EML4-ALK-L1196M-G1202R IC50, Ba/F3 cells; for TPM3-NTRK1-wt/EML4-ALK-wt: TRKA selectivity ratio: TPM3-NTRK1-wt IC50 / EML4-ALK-wt IC50, Ba/F3 cells
Method in brief: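 IL-3-independent Ba/F3 lines stably expressing TPM3-TRKA or the primary fusion (e.g. CD74-ROS1 wt) were exposed to 3-fold compound dilutions for 72 h. Viability was read by CellTiter-Glo luminescence, with IC50 from four-parameter logistic fit. Selectivity is TPM3-NTRK1 IC50 divided by primary-target IC50, binned A (>30-fold) to D (<1).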

Row | SMILES | TPM3-NTRK1-wt/CD74-ROS1-G2032R | TPM3-NTRK1-wt/CD74-ROS1-wt | TPM3-NTRK1-wt/EML4-ALK-L1196M-G1202R | TPM3-NTRK1-wt/EML4-ALK-wt
1 | CCn1ncc2c1-c1cnc(N)c(c1)OCc1cc(F)ccc1-n1ncc(F)c1C2 [Example 48, 3-ethyl-9,16-difluoro-20-oxa-3,4,11,12,23-pentaazapentacyclo[19.3.1.0^2,^6.0^8,^12.0^13,^18]pentacosa-1(24),2(6),4,8,10,13,15,17,21(25),22-decaen-22-amine] | A (bin A for very high selectivity, ratio>30-fold) | A (bin A for very high selectivity, ratio>30-fold) | B (bin B for high selectivity, ratio>10-fold) | A (bin A for very high selectivity, ratio>30-fold)
2 | CCn1ncc2c1-c1cnc(N)c(c1)OCc1cc(F)ccc1-c1nn(C)cc1C2 [Example 49, 3-ethyl-16-fluoro-10-methyl-20-oxa-3,4,10,11,23-pentaazapentacyclo[19.3.1.0^2,^6.0^8,^12.0^13,^18]pentacosa-1(24),2(6),4,8,11,13,15,17,21(25),22-decaen-22-amine] | A (bin A for very high selectivity, ratio>30-fold) | A (bin A for very high selectivity, ratio>30-fold) | B (bin B for high selectivity, ratio>10-fold) | A (bin A for very high selectivity, ratio>30-fold)
3 | CCc1ncn2c1-c1cnc(N)c(c1)O[C@H](C)c1cc(F)ccc1-c1nn(C)cc1C2 [Example 50, (19R)-3-ethyl-16-fluoro-10,19-dimethyl-20-oxa-4,6,10,11,23-pentaazapentacyclo[19.3.1.0^2,^6.0^8,^12.0^13,^18]pentacosa-1(24),2,4,8,11,13,15,17,21(25),22-decaen-22-amine] | A (bin A for very high selectivity, ratio>30-fold) | A (bin A for very high selectivity, ratio>30-fold) | B (bin B for high selectivity, ratio>10-fold) | A (bin A for very high selectivity, ratio>30-fold)
4 | CCn1ncc2c1-c1cnc(N)c(c1)O[C@H](C)c1cc(F)ccc1-n1nc(C#N)cc1C2 [Example 51, (19R)-22-amino-3-ethyl-16-fluoro-19-methyl-20-oxa-3,4,11,12,23-pentaazapentacyclo[19.3.1.0^2,^6.0^8,^12.0^13,^18]pentacosa-1(24),2(6),4,8,10,13,15,17,21(25),22-decaene-10-carbonitrile] | C (bin C for moderate selectivity, ratio≥1) | C (bin C for moderate selectivity, ratio≥1) | C (bin C for moderate selectivity, ratio≥1) | D (bin D for low selectivity, ratio<1)
5 | CCn1ncc2c1-c1cnc(N)c(c1)O[C@H](C)c1cc(F)ccc1-n1nc(C(F)(F)F)cc1C2 [Example 52, (19R)-3-ethyl-16-fluoro-19-methyl-10-(trifluoromethyl)-20-oxa-3,4,11,12,23-pentaazapentacyclo[19.3.1.0^2,^6.0^8,^12.0^13,^18]pentacosa-1(24),2(6),4,8,10,13,15,17,21(25),22-decaen-22-amine] | A (bin A for very high selectivity, ratio>30-fold) | A (bin A for very high selectivity, ratio>30-fold) | C (bin C for moderate selectivity, ratio≥1) | B (bin B for high selectivity, ratio>10-fold)
6 | Cc1nn(CC2CC2)c2c1Cc1cn(C)nc1-c1ccc(F)cc1[C@@H](C)Oc1cc-2cnc1N [Example 53, (19R)-3-(cyclopropylmethyl)-16-fluoro-5,10,19-trimethyl-20-oxa-3,4,10,11,23-pentaazapentacyclo[19.3.1.0^2,^6.0^8,^12.0^13,^18]pentacosa-1(24),2(6),4,8,11,13,15,17,21(25),22-decaen-22-amine] | A (bin A for very high selectivity, ratio>30-fold) | A (bin A for very high selectivity, ratio>30-fold) | A (bin A for very high selectivity, ratio>30-fold) | A (bin A for very high selectivity, ratio>30-fold)
7 | Cc1nn(CC2CC2)c2c1Cc1c(nn(C)c1Cl)-c1ccc(F)cc1[C@@H](C)Oc1cc-2cnc1N [Example 54, (19R)-9-chloro-3-(cyclopropylmethyl)-16-fluoro-5,10,19-trimethyl-20-oxa-3,4,10,11,23-pentaazapentacyclo[19.3.1.0^2,^6.0^8,^12.0^13,^18]pentacosa-1(24),2(6),4,8,11,13,15,17,21(25),22-decaen-22-amine] | A (bin A for very high selectivity, ratio>30-fold) | A (bin A for very high selectivity, ratio>30-fold) | B (bin B for high selectivity, ratio>10-fold) | A (bin A for very high selectivity, ratio>30-fold)
8 | CCc1nn(C)c2c1-c1cnc(N)c(c1)OCc1cc(F)ccc1-n1nc(C)cc1C2 [Example 55, 3-ethyl-16-fluoro-5,10-dimethyl-20-oxa-4,5,11,12,23-pentaazapentacyclo[19.3.1.0^2,^6.0^8,^12.0^13,^18]pentacosa-1(24),2(6),3,8,10,13,15,17,21(25),22-decaen-22-amine] | A (bin A for very high selectivity, ratio>30-fold) | A (bin A for very high selectivity, ratio>30-fold) | C (bin C for moderate selectivity, ratio≥1) | A (bin A for very high selectivity, ratio>30-fold)
9 | Cc1cn2c(n1)-c1ccc(F)cc1[C@@H](C)Oc1cc(cnc1N)-c1c(c(C)nn1CC1CC1)C2 [Example 56, (19R)-3-(cyclopropylmethyl)-16-fluoro-5,10,19-trimethyl-20-oxa-3,4,8,11,23-pentaazapentacyclo[19.3.1.0^2,^6.0^8,^12.0^13,^18]pentacosa-1(24),2(6),4,9,11,13,15,17,21(25),22-decaen-22-amine] | D (bin D for low selectivity, ratio<1) | D (bin D for low selectivity, ratio<1) | D (bin D for low selectivity, ratio<1) | D (bin D for low selectivity, ratio<1)
10 | C[C@H]1Oc2cc(cnc2N)-c2c(C#N)cnn2Cc2ccnn2-c2ccc(F)cc21 [Example 58, (19R)-22-amino-16-fluoro-19-methyl-20-oxa-4,6,11,12,23-pentaazapentacyclo[19.3.1.0^2,^6.0^8,^12.0^13,^18]pentacosa-1(24),2,4,8,10,13,15,17,21(25),22-decaene-3-carbonitrile] | A (bin A for very high selectivity, ratio>30-fold) | A (bin A for very high selectivity, ratio>30-fold) | B (bin B for high selectivity, ratio>10-fold) | A (bin A for very high selectivity, ratio>30-fold)
11 | CC1Oc2cc(cnc2N)-c2c(nn(C)c2C#N)Cc2cnccc2-c2ccc(F)cc21 (stereo not shown) [Example 59, 23-amino-17-fluoro-4,20-dimethyl-21-oxa-4,5,10,24-tetraazapentacyclo[20.3.1.0^2,^6.0^8,^13.0^14,^19]hexacosa-1(25),2,5,8(13),9,11,14,16,18,22(26),23-undecaene-3-carbonitrile] | C (bin C for moderate selectivity, ratio≥1) | A (bin A for very high selectivity, ratio>30-fold) | D (bin D for low selectivity, ratio<1) | 
12 | Cc1cc2n(n1)-c1ccc(F)cc1[C@@H](C)Oc1cc(cnc1N)-c1c(C#N)ncn1C2 [Example 61, (19R)-22-amino-16-fluoro-10,19-dimethyl-20-oxa-4,6,11,12,23-pentaazapentacyclo[19.3.1.0^2,^6.0^8,^12.0^13,^18]pentacosa-1(24),2,4,8,10,13,15,17,21(25),22-decaene-3-carbonitrile] | A (bin A for very high selectivity, ratio>30-fold) | A (bin A for very high selectivity, ratio>30-fold) | B (bin B for high selectivity, ratio>10-fold) | A (bin A for very high selectivity, ratio>30-fold)
13 | C[C@H]1Oc2cc(cnc2N)-c2c(C#N)cnn2Cc2ccnn2-c2ccc(F)cc21 [Example 62, (19R)-22-amino-16-fluoro-19-methyl-20-oxa-5,6,11,12,23-pentaazapentacyclo[19.3.1.0^2,^6.0^8,^12.0^13,^18]pentacosa-1(24),2,4,8,10,13,15,17,21(25),22-decaene-3-carbonitrile] | B (bin B for high selectivity, ratio>10-fold) | A (bin A for very high selectivity, ratio>30-fold) | C (bin C for moderate selectivity, ratio≥1) | A (bin A for very high selectivity, ratio>30-fold)
14 | C[C@H]1Oc2cc(cnc2N)-c2c(C#N)ncn2Cc2cc(F)cnc2-c2ccc(F)cc21 [Example 63, (20R)-23-amino-10,17-difluoro-20-methyl-21-oxa-4,6,12,24-tetraazapentacyclo[20.3.1.0^2,^6.0^8,^13.0^14,^19]hexacosa-1(25),2,4,8,10,12,14(19),15,17,22(26),23-undecaene-3-carbonitrile] | A (bin A for very high selectivity, ratio>30-fold) | A (bin A for very high selectivity, ratio>30-fold) | B (bin B for high selectivity, ratio>10-fold) | A (bin A for very high selectivity, ratio>30-fold)
